From US9012166B2, “Method for assaying histone methylation enzyme activity” (Kyushu Institute of Technology, priority 2010, dated 2015)

Experiments:
Type in all cases: biochemical
trypsin [1] = assay: Mixing assay of substrate compound with peptidase (trypsin), AMC fluorescence; settings: 1,000 μM BocLys(Me)nMCA and trypsin; λex 390 nm, λem 460 nm
Description: (§1) Distilled water was added to 10 μL of 2×HMT buffer (100 mM Tris-HCl (pH 8.5), 20 mM MgCl2, 40 mM KCl, 20 mM 2-mercaptoethanol, 500 mM sucrose) and 1 μL of a BocLysMCA solution to adjust the total volume to 20 μL. To the resultant solution was added 30 μL of a peptidase solution (20 mg/mL trypsin or 20 mAU/mL lysyl endopeptidase), which was then mixed and incubated at 37° C. for 15 minutes. Then, the fluorescence intensity of the solution was measured at an excitation wavelength (λex) of 390 nm and a fluorescence wavelength (λem) of 460 nm. The wavelength is a wavelength for detecting AMC (7-amino-4-methylcoumarin) released by the cleavage of the amide bond between Lys and MCA of BocLysMCA. The fluorescence intensity of AMC was similarly measured by performing a mixing assay by the same method as the above method except for using monomethylated BocLysMCA (i.e., “BocLys(Me)MCA”), dimethylated BocLysMCA (i.e., “BocLys(Me)2MCA”), or trimethylated BocLysMCA (i.e., “BocLys(Me)3MCA”) in place of BocLysMCA.

lysyl endopeptidase [2] = molecular target: T1, lysyl endopeptidase (Achromobacter lyticus, UniProt P15636); assay: Mixing assay of substrate compound with peptidase (lysyl endopeptidase), AMC fluorescence; settings: 1,000 μM BocLys(Me)nMCA and lysyl endopeptidase; λex 390 nm, λem 460 nm
Description: as §1

trypsin [3] = assay: LC/MS analysis of reaction between substrate compound and trypsin; settings: Example 3; 37° C., 15 minutes
Description: (§2) Distilled water was added to 10 μL of 2×HMT buffer (100 mM Tris-HCl (pH 8.5), 20 mM MgCl2, 40 mM KCl, 20 mM 2-mercaptoethanol, 500 mM sucrose) and 1 μL of a BocLysMCA solution to adjust the total volume to 20 μL. To the resultant solution was added 30 μL of a peptidase solution (20 mg/mL trypsin or 20 mAU/mL lysyl endopeptidase), which was then mixed and incubated at 37° C. for 15 minutes. Then, the solution was applied to a liquid chromatograph mass spectrometer (LC/MS) for analysis. Analysis was performed by the same method as that for the above analysis except for using monomethylated BocLysMCA (i.e., “BocLys(Me)MCA”), dimethylated BocLysMCA (i.e., “BocLys(Me)2MCA”), or trimethylated BocLysMCA (i.e., “BocLys(Me)3MCA”) in place of BocLysMCA. Analysis was also carried out by the same method except for using, in place of the above-described peptidase solution, an equal volume of distilled water.

lysyl endopeptidase [4] = molecular target: T1, lysyl endopeptidase; assay: LC/MS analysis of reaction between substrate compound and lysyl endopeptidase; settings: Example 3; 37° C., 15 minutes
Description: as §2

G9a (GST-mG9a) = molecular target: T2, G9a (GST-mG9a) (Mus musculus, UniProt Q9Z148); assay: Assay for measuring histone methyltransferase activity using peptidyl MCA, inhibitor evaluation with G9a; settings: Example 9; Ac-histone H3 (1-9)-MCA; AMC fluorescence λex 390 nm/λem 460 nm; FIG. 19; read-out: IC50 for G9a
T2 sequence (Q9Z148 1-1263): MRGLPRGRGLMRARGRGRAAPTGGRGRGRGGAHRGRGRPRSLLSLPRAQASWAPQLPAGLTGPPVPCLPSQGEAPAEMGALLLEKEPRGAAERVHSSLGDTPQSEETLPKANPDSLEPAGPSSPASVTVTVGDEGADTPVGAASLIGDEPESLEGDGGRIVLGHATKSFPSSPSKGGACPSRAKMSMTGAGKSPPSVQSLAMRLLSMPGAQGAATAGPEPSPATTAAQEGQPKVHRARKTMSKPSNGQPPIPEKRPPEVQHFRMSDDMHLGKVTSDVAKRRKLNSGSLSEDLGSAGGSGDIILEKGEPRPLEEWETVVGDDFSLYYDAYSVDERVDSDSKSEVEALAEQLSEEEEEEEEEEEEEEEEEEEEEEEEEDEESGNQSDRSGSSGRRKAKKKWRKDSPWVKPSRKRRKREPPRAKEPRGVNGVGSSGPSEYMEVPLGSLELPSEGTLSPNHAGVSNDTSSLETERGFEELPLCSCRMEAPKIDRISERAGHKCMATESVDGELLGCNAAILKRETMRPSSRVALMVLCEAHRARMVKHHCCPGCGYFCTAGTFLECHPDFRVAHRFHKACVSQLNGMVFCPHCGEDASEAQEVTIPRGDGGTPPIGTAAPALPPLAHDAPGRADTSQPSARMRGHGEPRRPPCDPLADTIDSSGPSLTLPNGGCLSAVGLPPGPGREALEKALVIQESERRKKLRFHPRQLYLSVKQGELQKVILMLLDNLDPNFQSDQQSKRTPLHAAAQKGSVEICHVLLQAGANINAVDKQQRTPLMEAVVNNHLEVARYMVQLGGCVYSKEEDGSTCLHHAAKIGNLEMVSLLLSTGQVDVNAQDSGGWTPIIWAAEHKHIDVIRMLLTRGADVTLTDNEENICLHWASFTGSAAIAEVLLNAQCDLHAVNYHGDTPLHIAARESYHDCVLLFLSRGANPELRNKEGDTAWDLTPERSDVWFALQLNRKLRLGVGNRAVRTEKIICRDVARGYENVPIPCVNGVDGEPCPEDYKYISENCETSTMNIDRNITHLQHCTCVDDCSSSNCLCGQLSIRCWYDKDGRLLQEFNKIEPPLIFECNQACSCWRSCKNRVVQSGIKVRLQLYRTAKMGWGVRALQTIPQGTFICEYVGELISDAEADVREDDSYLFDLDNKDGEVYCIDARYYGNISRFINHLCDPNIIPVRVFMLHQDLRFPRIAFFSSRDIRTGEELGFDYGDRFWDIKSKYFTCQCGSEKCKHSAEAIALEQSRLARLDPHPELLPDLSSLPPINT
Description: When G9a was adopted as a histone methyltransferase, the following method was used. 10 μL of 2×HMT buffer (100 mM Tris-HCl (pH 8.5), 20 mM MgCl2, 40 mM KCl, 20 mM 2-mercaptoethanol, 500 mM sucrose), 0.4 μL of a BSA solution (150 μg/mL), 2 μL of GST-mG9a (0, 0.5 μg/μL), 1 μL of gliotoxin (any of various concentrations) and 2.6 μL of distilled water were mixed and then incubated at room temperature for 1 hour. Then, 2 μL of SAM (10 mM) and 2 μL of a peptidyl MCA (Ac-histone H3 (1-9)-MCA) solution (0.6 mM) were added thereto, which was then incubated at 37° C. for 1 hour. Thereafter, 30 μL of a trypsin solution (20 mg/mL) was added thereto, followed by incubation at 37° C. for 15 minutes. Then, the fluorescence intensity of the solution was measured at an excitation wavelength (λex) of 390 nm and a fluorescence wavelength (λem) of 460 nm. The final concentration of GST-mG9a during the measurement of fluorescence intensity was 0.05 μg/μL. The results of the assay for measuring histone methyltransferase activity are shown in the middle panel of FIG. 18.
The rate of the inhibition of methylation by gliotoxin was calculated from the results in the left panel and the middle panel of FIG. 18. Specifically, the value (%) was calculated which was obtained by dividing “a value obtained by subtracting “the fluorescence intensity of AMC when peptidase was added but gliotoxin was not added” from “the fluorescence intensity of AMC when both peptidase and gliotoxin were added”” by “a value obtained by subtracting “the fluorescence intensity of AMC when peptidase was added but gliotoxin was not added” from “the fluorescence intensity of AMC when no peptidase or gliotoxin was added”” and multiplying the resultant value by 100. The rate (%) of the inhibition of methylation by gliotoxin is shown in the right panel of FIG. 18.
Specifically, the assay for measuring histone methyltransferase activity was carried out by the same method as the method using G9a […] in Example 8 except for using S-Adenosyl-L-homocysteine (SAH) in place of gliotoxin. SAH is a by-product of the methylation reaction and is known to inhibit histone methyltransferase in a negative feedback manner. […] The rate (%) of the inhibition of methylation by SAH was calculated from the results in the left panel of FIG. 19. The results are shown in the right panel of FIG. 19.
When G9a was adopted as a histone methyltransferase, the following method was used. […] Then, the fluorescence intensity of the solution was measured at an excitation wavelength (λex) of 330 nm and a fluorescence wavelength (λem) of 380 nm or at an excitation wavelength (λex) of 390 nm and a fluorescence wavelength (λem) of 460 nm. The final concentration of GST-mG9a during the measurement of fluorescence intensity was 0 μg/μL or 0.05 μg/μL.

T1 sequence (P15636 206-473 limits assumed, species assumed): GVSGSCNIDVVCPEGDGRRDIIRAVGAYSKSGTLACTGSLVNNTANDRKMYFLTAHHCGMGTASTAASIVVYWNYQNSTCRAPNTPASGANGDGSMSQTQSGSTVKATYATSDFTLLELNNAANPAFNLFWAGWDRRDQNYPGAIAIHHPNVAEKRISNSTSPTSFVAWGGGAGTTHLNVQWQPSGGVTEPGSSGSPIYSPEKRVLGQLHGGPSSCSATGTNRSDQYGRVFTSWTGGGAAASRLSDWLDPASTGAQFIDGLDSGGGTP

Row | SMILES | fluorescence intensity of AMC when the fluorescence intensity for BocLysMCA was set to 100% (trypsin [1]) [%] | fluorescence intensity of AMC when the fluorescence intensity for BocLysMCA was set to 100% (lysyl endopeptidase [2]) [%] | hydrolysis by trypsin (LC/MS peaks) (trypsin [3]) | hydrolysis by lysyl endopeptidase (LC/MS peaks) (lysyl endopeptidase [4]) | IC50 (G9a (GST-mG9a)) [µM]
1 | Cc1cc(=O)oc2cc(NC(=O)[C@H](CCCCN(C)C)NC(=O)OC(C)(C)C)ccc12 [BocLys(Me)2MCA, dimethylated BocLysMCA] | 0.12 | 0.053 | almost no occurrence of hydrolysis | almost no occurrence of hydrolysis | 
2 | CNCCCC[C@H](NC(=O)OC(C)(C)C)C(=O)Nc1ccc2c(C)cc(=O)oc2c1 [BocLys(Me)MCA, monomethylated BocLysMCA] | 2.7 | 0.096 | almost no occurrence of hydrolysis | almost no occurrence of hydrolysis | 
3 | Cc1cc(=O)oc2cc(NC(=O)[C@H](CCCC[N+](C)(C)C)NC(=O)OC(C)(C)C)ccc12 [BocLys(Me)3MCA, trimethylated BocLysMCA] | 0.24 | 0.25 | almost no occurrence of hydrolysis | almost no occurrence of hydrolysis | 
4 | Nc1ncnc2c1ncn2[C@@H]1O[C@H](CSCC[C@H](N)C(=O)O)[C@@H](O)[C@H]1O [SAH, S-Adenosyl-L-homocysteine] |  |  |  |  | 490
